Test results: EP4778933A1 (Chengdu Hyperway Pharmaceuticals Co., Ltd., priority 2023, dated 2025)
Where two headings read alike, the source gives them in different places.

What was measured:
[1] = In vivo pharmacokinetic test in mice; details: single dose 30 mg/kg, plasma
Protocol: Each test compound was administered orally once to female BALB/c mice for pharmacokinetic study. The test compounds were prepared on the day of administration. The oral administration solvent: 50 mM sodium citrate (pH 5.0) + 10% captisol. The oral administration was conducted in a dose of 30 mg/kg. The animals were fasted for 10-14 h before oral administration, and the feeding was resumed 4 h after administration. Pharmacokinetic samples were collected through the orbit. The collection time points were: 15 min, 30 min, 1 h, 2 h, 4 h, 6 h, 8 h and 24 h after administration. Three whole blood samples were collected at each time point, with a collection volume of about 0.2 mL, and anticoagulated with sodium heparin. After blood samples were collected, they were immediately placed on ice and centrifuged within 1 h to isolate plasma (centrifugation conditions: 8000 rpm, 1 min, 2-8°C). The collected plasma was stored in a -20°C refrigerator before analysis. The concentrations of compounds in the plasma samples were determined using an LC-MS/MS analysis method.

[2] = system: KRAS G12D-mediated ERK phosphorylation; assay: Inhibition of KRAS G12D-mediated ERK phosphorylation in AGS cells (in-cell pERK/GAPDH immunofluorescence); assay type: cell-based
Protocol: (§1) Day 1: AGS cells, SW480 cells, NCI H358 cells, HCT116 cells, and KP2 cells were seeded into 384-well cell culture plates and cultured overnight in a 37°C, 5% CO2 incubator.
(§2) Day 2: The compounds were added to the plates using Echo550 and incubated for 3 h in a 37°C, 5% CO2 incubator. Then, cells fixed with paraformaldehyde, permeated with methanol and blocked with a blocking solution were added. Finally, a mixed solution of primary antibodies (rabbit anti pERK, mouse anti GAPDH) was added, and the mixture was incubated overnight at 4°C.
(§3) Day 3: The mixed solution of primary antibodies was discarded, and a mixed solution of secondary antibodies (goat anti rabbit 800 CW, goat anti mouse 680 RD) was added. The resulting mixture was incubated at room temperature in the dark. Finally, the cell culture plate was washed with PBST, and then inverted for 1 minute of centrifugation. The fluorescence signal values were read with Odyssey CLx.
(§4) ERK phosphorylation was calculated according to the following formula: [formula] • Negative control: DMSO • Positive control: 10 µM Reference • IC50 value was fitted and calculated by XLFit 5.0 using the parametric formula. • Y = Bottom+(Top-Bottom)/(1+10^((LogIC50-X)*HillSlope)) • X: log value of compound concentration. • Y: average value of relative expression of p-ERK between replicate wells.

[3] = system: KRAS G12V-mediated ERK phosphorylation; assay: Inhibition of KRAS G12V-mediated ERK phosphorylation in SW480 cells; assay type: cell-based; details: 3 h incubation, read-out: Inhibitory activity on ERK phosphorylation (IC50) SW480-G12V
Protocol: as §1, §2, §3, §4

[4] = system: KRAS G13D-mediated ERK phosphorylation; assay: Inhibition of KRAS G13D-mediated ERK phosphorylation in HCT116 cells; assay type: cell-based; details: Homo sapiens, HCT-116, 3 h incubation, read-out: Inhibitory activity on ERK phosphorylation (IC50) HCT116-G13D
Protocol: as §1, §2, §3, §4

[5] = system: KRAS G12C-mediated ERK phosphorylation; assay: Inhibition of KRAS G12C-mediated ERK phosphorylation in NCI H358 cells; assay type: cell-based; details: Homo sapiens, 3 h incubation, read-out: Inhibitory activity on ERK phosphorylation (IC50) NCI H358-G12C
Protocol: as §1, §2, §3, §4

[6] = system: KRAS G12R-mediated ERK phosphorylation; assay: Inhibition of KRAS G12R-mediated ERK phosphorylation in KP2 cells; assay type: cell-based; details: 3 h incubation, read-out: Inhibitory activity on ERK phosphorylation (IC50) KP2-G12R
Protocol: as §1, §2, §3, §4

[7] = mouse, female BALB/c mice, oral, read-out: AUC
[8] = mouse, female BALB/c mice, oral, read-out: Cmax
[9] = female BALB/c mice, oral, 30 mg/kg
[10] = AGS cells, 3 h incubation, read-out: Inhibitory activity on ERK phosphorylation (IC50) AGS-G12D
[11] = Homo sapiens, AGS, 3 h, read-out: Inhibitory activity on ERK phosphorylation (IC50) AGS-G12D, AGS cells, 3 h incubation
[12] = Homo sapiens, AGS, 3 h, AGS cells, 3 h incubation, read-out: Inhibitory activity on ERK phosphorylation (IC50) AGS-G12D

N#Cc1c(N)sc2c(F)ccc(-c3c(Cl)cc4c(N5CCOCC5)nc(OC[C@@]56CCCN5[C@H](c5cc(F)c(F)c(F)c5)CC6)nc4c3F)c12 (relative stereo) [Example 17]
AUC [1, 7]: 3990 ng·h/mL
Cmax [1, 8]: 1490 ng/mL
IC50 ([2]; Homo sapiens, AGS cells, 3 h incubation, read-out: Inhibitory activity on ERK phosphorylation (IC50) AGS-G12D): 41 nM

CC1(O)COCCN(c2nc(OCC34CCCN3C(c3cc(F)c(F)c(F)c3)CC4)nc3c(F)c(-c4ccc(F)c5sc(N)c(C#N)c45)c(Cl)cc23)C1 (single isomer, unassigned) [Example 9, 2-amino-4-[6-chloro-8-fluoro-4-(6-hydroxy-6-methyl-1,4-oxazepan-4-yl)-2-({[3-(3,4,5-trifluorophenyl)-2,3,5,6,7,7a-hexahydro-1H-pyrrolizin-7a-yl]methyl}oxy)quinazolin-7-yl]-7-fluorobenzo[b]thiophene-3-carbonitrile]
AUC [1, 9]: 5181 ng·h/mL
Cmax [1, 9]: 1897 ng/mL
IC50 [2, 10]: 27 nM

CC1(O)COCCN(c2nc(OCC34CCCN3C(c3cc(F)c(F)c(F)c3)CC4)nc3c(F)c(-c4ccc(F)c5sc(N)c(C#N)c45)c(Cl)cc23)C1 (single isomer, unassigned) [Example 10, 2-amino-4-[6-chloro-8-fluoro-4-(6-hydroxy-6-methyl-1,4-oxazepan-4-yl)-2-({[3-(3,4,5-trifluorophenyl)-2,3,5,6,7,7a-hexahydro-1H-pyrrolizin-7a-yl]methyl}oxy)quinazolin-7-yl]-7-fluorobenzo[b]thiophene-3-carbonitrile]
IC50 [3]: > 1000 nM

CC1(O)COCCN(c2nc(OCC34CCCN3C(c3cc(F)c(F)c(F)c3)CC4)nc3c(F)c(-c4ccc(F)c5sc(N)c(C#N)c45)c(Cl)cc23)C1 (single isomer, unassigned) [Example 11, 2-amino-4-[6-chloro-8-fluoro-4-(6-hydroxy-6-methyl-1,4-oxazepan-4-yl)-2-({[3-(3,4,5-trifluorophenyl)-2,3,5,6,7,7a-hexahydro-1H-pyrrolizin-7a-yl]methyl}oxy)quinazolin-7-yl]-7-fluorobenzo[b]thiophene-3-carbonitrile]
IC50 [3]: > 1000 nM

CC1(O)COCCN(c2nc(OCC34CCCN3C(c3cc(F)c(F)c(F)c3)CC4)nc3c(F)c(-c4ccc(F)c5sc(N)c(C#N)c45)c(Cl)cc23)C1 (single isomer, unassigned) [Example 13, 2-amino-4-[6-chloro-8-fluoro-4-(6-hydroxy-6-methyl-1,4-oxazepan-4-yl)-2-({[3-(3,4,5-trifluorophenyl)-2,3,5,6,7,7a-hexahydro-1H-pyrrolizin-7a-yl]methyl}oxy)quinazolin-7-yl]-7-fluorobenzo[b]thiophene-3-carbonitrile]
IC50 [3]: 16 nM

CC1(O)COCCN(c2nc(OCC34CCCN3C(c3cc(F)c(F)c(F)c3)CC4)nc3c(F)c(-c4cccc5sc(N)c(C#N)c45)c(Cl)cc23)C1 (single isomer, unassigned) [Example 18, 2-amino-4-[6-chloro-8-fluoro-4-(6-hydroxy-6-methyl-1,4-oxazepan-4-yl)-2-({[3-(3,4,5-trifluorophenyl)-2,3,5,6,7,7a-hexahydro-1H-pyrrolizin-7a-yl]methyl}oxy)quinazolin-7-yl]benzo[b]thiophene-3-carbonitrile]
AUC [1, 9]: 6017 ng·h/mL
Cmax [1, 9]: 2148 ng/mL
IC50 [2, 10]: 33 nM

CC1(O)COCCN(c2nc(OCC34CCCN3C(c3cc(F)c(F)c(F)c3)CC4)nc3c(F)c(-c4cccc5sc(N)c(C#N)c45)c(I)cc23)C1 (single isomer, unassigned) [Example 28, 2-amino-4-[6-iodo-8-fluoro-4-(6-hydroxy-6-methyl-1,4-oxazepan-4-yl)-2-({[3-(3,4,5-trifluorophenyl)-2,3,5,6,7,7a-hexahydro-1H-pyrrolizin-7a-yl]methyl}oxy)quinazolin-7-yl]benzo[b]thiophene-3-carbonitrile]
AUC [1, 9]: 9224 ng·h/mL
Cmax ([1]; female, BALB/c, mouse, po, 30 mg/kg, read-out: Cmax): 3290 ng/mL
IC50 [2, 10]: 4.2 nM

CC1(O)COCCN(c2nc(OCC34CCCN3C(c3cc(F)c(F)c(F)c3)CC4)nc3c(F)c(-c4cccc5sc(N)c(C#N)c45)c(I)cc23)C1 (single isomer, unassigned) [Example 30, 2-amino-4-[6-iodo-8-fluoro-4-(6-hydroxy-6-methyl-1,4-oxazepan-4-yl)-2-({[3-(3,4,5-trifluorophenyl)-2,3,5,6,7,7a-hexahydro-1H-pyrrolizin-7a-yl]methyl}oxy)quinazolin-7-yl]benzo[b]thiophene-3-carbonitrile]
IC50 [2, 10]: 94 nM

CC1(O)COCCN(c2nc(OCC34CCCN3C(c3cc(F)c(F)c(F)c3)CC4)nc3c(F)c(-c4cccc5sc(N)c(C#N)c45)c(I)cc23)C1 (single isomer, unassigned) [Example 32, 2-amino-4-[6-iodo-8-fluoro-4-(6-hydroxy-6-methyl-1,4-oxazepan-4-yl)-2-({[3-(3,4,5-trifluorophenyl)-2,3,5,6,7,7a-hexahydro-1H-pyrrolizin-7a-yl]methyl}oxy)quinazolin-7-yl]benzo[b]thiophene-3-carbonitrile]
IC50 [2, 10]: 24 nM

CC1(O)COCCN(c2nc(OCC34CCCN3C(c3cc(F)c(F)c(F)c3)CC4)nc3c(F)c(-c4cccc5sc(N)c(C#N)c45)c(P(C)(C)=O)cc23)C1 (single isomer, unassigned) [Example 33, 2-amino-4-{6-[dimethyl(oxo)-15-methylphosphino]-8-fluoro-4-(6-hydroxy-6-methyl-1,4-oxazepan-4-yl)-2-({[3-(3,4,5-trifluorophenyl)-2,3,5,6,7,7a-hexahydro-1H-pyrrolizin-7a-yl]methyl}oxy)quinazolin-7-yl}benzo[b]thiophene-3-carbonitrile]
IC50 [2, 11]: 196 nM

N#Cc1c(N)sc2cccc(-c3c(Cl)cc4c(N5CCNOCC5)nc(OCC56CCCN5C(c5cc(F)c(F)c(F)c5)CC6)nc4c3F)c12 (single isomer, unassigned) [Example 34, 2-amino-4-[6-chloro-8-fluoro-4-(1,2,5-oxadiazepan-5-yl)-2-({[3-(3,4,5-trifluorophenyl)-2,3,5,6,7,7a-hexahydro-1H-pyrrolizin-7a-yl]methyl}oxy)quinazolin-7-yl]benzo[b]thiophene-3-carbonitrile]
IC50 [2, 12]: 67 nM

CC1(O)COCCN(c2nc(OCC34CCCN3C(c3cc(F)c(F)c(F)c3)CC4)nc3c(F)c(-c4cncc5sc(N)c(C#N)c45)c(Cl)cc23)C1 (single isomer, unassigned) [Example 37, 2-amino-4-[6-chloro-8-fluoro-4-(6-hydroxy-6-methyl-1,4-oxazepan-4-yl)-2-({[1-(3,4,5-trifluoropheny 1)octahydrocyclopenta[1,2-a][5]annulen-3a-yl]methyl}oxy)quinazolin-7-yl]thieno[2,3-c]pyridine-3-ca rbonitrile]
IC50 [2, 11]: 193 nM

CC1(O)COCCN(c2nc(OCC34CCCN3C(c3cc(F)c(F)c(F)c3)CC4)nc3c(F)c(-c4cccc5sc(N)c(C#N)c45)c(Br)cc23)C1 (centres unmarked) [Example 23, 2-amino-4-[6-bromo-8-fluoro-4-(6-hydroxy-6-methyl-1,4-oxazepan-4-yl)-2-({[3-(3,4,5-trifluoropheny 1)-2,3,5,6,7,7a-hexahydro-1H-pyrrolizin-7a-yl]methyl}oxy)quinazolin-7-yl]benzo[b]thiophene-3-carb onitrile]
IC50 [4]: 94 nM
AUC [1, 7]: 9230 ng·h/mL
Cmax [1, 8]: 3620 ng/mL
IC50 [2, 12]: 4.2 nM
IC50 [5]: 4.9 nM
IC50 [6]: 663 nM
